Among the test systems are BT-549 breast; COLO 205 colon; HS 578T breast; MALME-3M melanoma; NCI-H226 lung; NCI/ADR-RES ovarian; OVCAR-5 ovarian; SNB-75 CNS; NCI-H460 lung; SR leukemia.
Holding throughout (assay): NCI-60 cell line screen, 48 h

SMILES strings stand for the structures.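 Briefly, cells in 96-well plates were exposed to five compound concentrations for 48 h, and endpoints were estimated by linear interpolation. Here, GI50 denotes the concentration required for 50% inhibition of growth. TGI: concentration producing complete growth inhibition.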

For the molecule `COc1cccc2c(Nc3ccc(C(=O)NCCNCCO)cc3)cc(-c3ccccc3)nc12`, the GI50 in the assay on BT-549 breast was 37.3 µM; with COLO 205 colon it was 23.6 µM; with HS 578T breast, 29.3 µM; in the assay with MALME-3M melanoma it was 21 µM; with NCI-H226 lung, 56.1 µM; in the assay with NCI/ADR-RES ovarian, above 100 µM. Besides, the GI50 in the assay with OVCAR-5 ovarian was 76.7 µM. Moreover, the TGI in the assay on BT-549 breast was above 100 µM; in the assay with COLO 205 colon, 86.6 µM; with HS 578T breast, above 100 µM; in the assay on MALME-3M melanoma it was 37.9 µM; with NCI-H226 lung, above 100 µM; with NCI/ADR-RES ovarian, above 100 µM. The values for the TGI with OVCAR-5 ovarian and in the assay on SNB-75 CNS were above 100 µM and 34.9 µM, respectively.

On to `NCCCn1c2c(c3ccccc3c1=O)C(=O)c1cc3c(cc1-2)OCO3`, for which the GI50 in the assay on BT-549 breast was below 0.01 µM; in the assay on COLO 205 colon, 0.121 µM; with HS 578T breast it was 0.687 µM; with MALME-3M melanoma, 1.48 µM; in the assay on NCI-H226 lung, 0.514 µM; in the assay with NCI-H460 lung it was 0.0547 µM. Also, the GI50 in the assay on NCI/ADR-RES ovarian is 1.05 µM; with OVCAR-5 ovarian, 1.54 µM. For the same molecule, the TGI turned out to be 1.77 µM in the assay with BT-549 breast; 1.98 µM in the assay on COLO 205 colon; 4.31 µM in the assay on HS 578T breast; 6.64 µM in the assay with MALME-3M melanoma; 3.48 µM with NCI-H226 lung; 12.6 µM in the assay on NCI-H460 lung. In addition, the values for the TGI in the assay with NCI/ADR-RES ovarian, in the assay on OVCAR-5 ovarian and in the assay on SNB-75 CNS were 4.43 µM, 4.08 µM and 1.72 µM, respectively.

Regarding `COc1c(O)cc2oc3cc(O)c(CC=C(C)C)c(O)c3c(=O)c2c1C/C=C(\C)CCC=C(C)C`, the GI50 with COLO 205 colon was 6.37 µM; with HS 578T breast, 7.11 µM; in the assay with MALME-3M melanoma, 6.34 µM; in the assay with NCI-H226 lung, 6.18 µM; in the assay on NCI-H460 lung it was 5.66 µM; in the assay with NCI/ADR-RES ovarian, 5.99 µM. In addition, the GI50 in the assay with OVCAR-5 ovarian is 5.19 µM; in the assay with SNB-75 CNS, 3.58 µM; in the assay on SR leukemia it was 5.45 µM. In addition, the TGI in the assay on COLO 205 colon stood at 11.4 µM; in the assay on HS 578T breast, 16.7 µM; in the assay on MALME-3M melanoma, 12 µM; in the assay on NCI-H226 lung it was 11.2 µM; with NCI-H460 lung, 10.2 µM; in the assay on NCI/ADR-RES ovarian, 11.4 µM. The values for the TGI in the assay with OVCAR-5 ovarian, in the assay on SNB-75 CNS and in the assay with SR leukemia were 10.6 µM, 7.46 µM and 13.2 µM, respectively.

Take `COc1cc2c3c(n(CCCO)c(=O)c2cc1OC)-c1cc2c(cc1C3=O)OCO2`: the GI50 is 2.22 µM with BT-549 breast; 26.4 µM with COLO 205 colon; 52 µM with HS 578T breast; 21.6 µM in the assay on MALME-3M melanoma; 3.85 µM in the assay with NCI-H226 lung; 0.845 µM with NCI-H460 lung. The GI50 was 3.95 µM in the assay on NCI/ADR-RES ovarian, above 79.2 µM in the assay on OVCAR-5 ovarian and 16.1 µM in the assay with SNB-75 CNS. Besides, the TGI with BT-549 breast is 49 µM; in the assay with COLO 205 colon it was 98 µM; with HS 578T breast, above 100 µM; with MALME-3M melanoma, above 100 µM; with NCI-H226 lung, 50.9 µM; in the assay on NCI-H460 lung it was above 100 µM. Moreover, the TGI in the assay with NCI/ADR-RES ovarian is above 53.4 µM; in the assay on OVCAR-5 ovarian, above 100 µM; in the assay with SNB-75 CNS it was above 79.1 µM.

`CN(C)CCCNC(=O)c1cc(NC(=O)c2cc(NC(=O)CCCN3c4ccccc4C=Cc4ccccc43)cn2C)cn1C`: the GI50 in the assay on BT-549 breast is 4.19 µM; in the assay on HS 578T breast, 4.87 µM; with NCI-H226 lung it was 19.4 µM; with NCI-H460 lung, 5.19 µM; in the assay on NCI/ADR-RES ovarian, 23.6 µM; in the assay with OVCAR-5 ovarian, 19.7 µM. Besides, the GI50 in the assay on SNB-75 CNS is 13.6 µM. Moreover, the TGI is 69.8 µM in the assay on BT-549 breast; 40 µM in the assay on HS 578T breast; above 100 µM in the assay on NCI-H226 lung; above 100 µM in the assay on NCI-H460 lung; 59.9 µM in the assay on NCI/ADR-RES ovarian; 46.9 µM in the assay with OVCAR-5 ovarian. Moreover, in the assay with SNB-75 CNS, the TGI stood at 62.9 µM.

For `Clc1ccc(Nc2ccnc(NCCNc3ccnc4cc(Cl)ccc34)n2)cc1`, the GI50 in the assay on BT-549 breast is 1.5 µM; in the assay on COLO 205 colon, 1.31 µM; with HS 578T breast, 1.83 µM; in the assay with MALME-3M melanoma, 1.74 µM; in the assay on NCI-H460 lung, 1.34 µM; in the assay with NCI/ADR-RES ovarian, 1.61 µM. The GI50 in the assay with OVCAR-5 ovarian was 1.16 µM; with SNB-75 CNS, 1.22 µM; with SR leukemia, 1.39 µM. For the same molecule, the TGI is 3.2 µM in the assay with BT-549 breast; 2.92 µM with COLO 205 colon; 4.38 µM in the assay on HS 578T breast; 3.48 µM in the assay on MALME-3M melanoma; 2.86 µM with NCI-H460 lung; 3.51 µM in the assay on NCI/ADR-RES ovarian. The TGI amounted to 2.45 µM in the assay with OVCAR-5 ovarian, 2.47 µM in the assay with SNB-75 CNS and 3.43 µM in the assay on SR leukemia.

Take `CS(=O)(=O)c1ccc(Oc2nccc(-c3c(-c4ccc(F)cc4)ncn3C3CCNCC3)n2)cc1`: the GI50 in the assay on BT-549 breast, with COLO 205 colon, in the assay on HS 578T breast, with MALME-3M melanoma, in the assay with NCI-H460 lung and in the assay on NCI/ADR-RES ovarian was above 25 µM each time. Besides, the GI50 in the assay with OVCAR-5 ovarian and with SNB-75 CNS was above 25 µM throughout. The TGI in the assay with BT-549 breast, in the assay with COLO 205 colon, in the assay with HS 578T breast, with MALME-3M melanoma, with NCI-H460 lung and in the assay with NCI/ADR-RES ovarian was above 25 µM throughout. The TGI in the assay on OVCAR-5 ovarian and in the assay on SNB-75 CNS was above 25 µM in each case.

Regarding `Cc1c(C(=O)N/N=C/c2ccc(O)cc2)nnn1-c1ccnc2c(C(F)(F)F)cccc12`, the GI50 in the assay on BT-549 breast is 41.6 µM; in the assay with COLO 205 colon, above 100 µM; with HS 578T breast it was 44.6 µM; with NCI-H226 lung it was 36.9 µM; in the assay on NCI-H460 lung it was above 100 µM; with NCI/ADR-RES ovarian, above 100 µM. Moreover, the GI50 was above 100 µM in the assay on OVCAR-5 ovarian, 19.1 µM in the assay on SNB-75 CNS and 44.1 µM in the assay on SR leukemia. For the same molecule, the TGI in the assay with BT-549 breast, with COLO 205 colon, with HS 578T breast, in the assay with NCI-H226 lung, with NCI-H460 lung and with NCI/ADR-RES ovarian was above 100 µM in each case. In addition, the values for the TGI with OVCAR-5 ovarian, with SNB-75 CNS and with SR leukemia were above 100 µM, 40 µM and above 100 µM, respectively.

The values are drawn from PubChem BioAssay (NCI).
